Data taken from US20210038732A1, “ANTICANCER MICRORNA AND LIPID FORMULATIONS THEREOF” (INTERNA TECHNOLOGIES B.V., priority 2018, published 2021).

Assays:
[1] = system: subq human A2058 melanoma tumors; experiment: Tumor growth inhibition, different doses and regimens, subq A2058 (Example 4.5); format: in vivo, mice; settings: day 21
Procedure: Six to eight weeks old female BALB/c nude mice (Shanghai Lingchang Bio-Technology Co. Ltd, Shanghai, China) were unilaterally and subcutaneously injected in the right flank with 5×10^6 A2058 tumor cells in PBS (0.1 mL/mouse). At the time of randomization, the TVs ranged between 50.3 and 156.3 mm3 (median 104.8, IQR=91.9-127.1). After randomization, the mice received different miRNA-193a dosing concentrations under different dosing regimen (see Table 10 for dosing scheme). The BRAF-inhibitor vemurafenib was also included. Body weights and TVs (caliper measurements) were determined three times/week. *QDx3,QDx4=one injection per day for 3 or 4 consecutive days; BIW=twice a week, BID=twice daily. Po=per oral.

[2] = system: 3′ untranslated regions (UTR) of NT5E (CD73); experiment: 3′UTR luciferase assay in Hela cells; format: cell-based; settings: 10 nM
Procedure: Firefly luciferase reporter constructs containing the 3′ untranslated regions (UTR) of NT5E (CD73) were transfected in Hela cells along with 10 nM miRNA-193a-3p or a scrambled control. Cell extracts were prepared 24 hours after transfection, and luciferase activity was measured using the Dual Luciferase Reporter Assay System (Promega). If the 3′UTR is a target of the miRNA, miRNA will interact with 3′UTR and provides lower luciferase signal.

[3] = system: Huh7; experiment: Cell viability (MTS assay or cell count); format: cell-based, human; settings: 10 nM; HCC Huh7; normalized to mock
Procedure: (§1) Depending on cancer cell type 3000-6000 cells were seeded in a 96 well plate. After cells attached, they were transfected with different concentrations of miRNA-193a and viability was measured at different time points. Viability measurement was performed using CellTiter 96 AQueous One Solution Cell Proliferation Assay (Promega). 20 μL of MTS reagent was added to 100 μL of media in each well in 96-well plate and incubated for 2 hours at 37° C. Absorbance was measured at 490 nm for each sample in 96 well plate reader.
(§2) Different biological effects of miRNA-193a-3p have been tested in various cancer cell lines (see Table 13). For this, various cells were treated with miRNA-193a at different concentrations (1, 3, 10 nM). For all experiments controls (untreated, mock and scrambled) were measured. […] Data shown in Table 13 are the results for miRNA-193a at 10 nM concentration at indicated time points. All the results have been quantified and normalized to the mock control.
(§3) miRNA-193a treatment in various cancer cell lines decreased cell viability over time as measured by either an MTS assay or by cell count. It enhanced apoptosis induction over time as measured by a caspase 3/7 apoptosis assay. […] It is of note that due to intrinsic characteristics and gene mutation status of each cell line, performing one method to detect apoptosis is not always ideal for all cell lines.

[4] = system: HeP3B, SNU449; experiment: Cell viability (MTS assay or cell count); format: cell-based, human; settings: 10 nM, HCC HeP3B, normalized to mock
Procedure: as §1, §2, §3

[5] = system: A549, H460; experiment: Cell viability (MTS assay or cell count); format: cell-based, human; settings: 10 nM; NSCLC A549, H460; normalized to mock
Procedure: as §1, §2, §3

[6] = system: A2058; experiment: Cell viability (MTS assay or cell count); format: cell-based, human; settings: 10 nM; Melanoma A2058; normalized to mock
Procedure: as §1, §2, §3

[7] = system: Pan02 Pancreatic adenocarcinoma; experiment: Primary tumor growth, syngeneic model; format: in vivo, mice; settings: 10 mg/kg i.v BIW x 3-4 weeks, vs PBS
Description: (§4) In this study, the effect of miRNA-193a formulated in diamino lipid nanoparticles was investigated on the primary tumor growth in a panel of twelve syngeneic tumor models. Six to eight weeks mice (Shanghai Lingchang Bio-Technology Co. Ltd, Shanghai, China) were subcutaneously injected with an appropriate number of syngeneic cancer cells, depending on the cancer model (see Table 18). At the time of randomization, tumor volume (TV) was approximately 80-120 mm^3. Body weights and TVs (caliper measurements) were determined 2-3 times/week. After randomization (indicated as day 0) mice received PBS or miR-193a (formulated in diamino lipid nanoparticles) treatments as shown in Table 19. Each tumor model had two groups as depicted in Table 19. Mice were scheduled to be euthanized after two weeks of follow up after a maximum of four weeks of treatment.

[8] = system: LL/2 Lung carcinoma; experiment: Primary tumor growth, syngeneic model; format: in vivo, mice; settings: 10 mg/kg i.v BIW x 3-4 weeks, vs PBS
Description: as §4

[9] = system: EMT-6 Breast mammary carcinoma; experiment: Primary tumor growth, syngeneic model; format: in vivo, mice; settings: 10 mg/kg i.v BIW x 3-4 weeks, vs PBS
Description: as §4

[10] = system: RM-1 Prostate cancer; experiment: Primary tumor growth, syngeneic model; format: in vivo, mice; settings: 10 mg/kg i.v BIW x 3-4 weeks, vs PBS
Description: as §4

[11] = system: A20 Reticulum cell sarcoma (lymphoma); experiment: Primary tumor growth, syngeneic model; format: in vivo, mice; settings: 10 mg/kg i.v BIW x 3-4 weeks, vs PBS
Description: as §4

[12] = system: CT26 Colon carcinoma; experiment: Primary tumor growth, syngeneic model; format: in vivo, mice; settings: 10 mg/kg i.v BIW x 3-4 weeks, vs PBS
Description: as §4

[13] = system: Hepa 1-6 Hepatoma; experiment: Primary tumor growth, syngeneic model; format: in vivo, mice; settings: 10 mg/kg i.v BIW x 3-4 weeks, vs PBS
Description: as §4

[14] = system: B16-F10 Melanoma; experiment: Primary tumor growth, syngeneic model; format: in vivo, mice; settings: 10 mg/kg i.v BIW x 3-4 weeks, vs PBS
Description: as §4

[15] = system: B16-BL6 Melanoma; experiment: Primary tumor growth, syngeneic model; format: in vivo, mice; settings: 10 mg/kg i.v BIW x 3-4 weeks, vs PBS
Description: as §4

[16] = system: Renca Renal adenocarcinoma; experiment: Primary tumor growth, syngeneic model; format: in vivo, mice; settings: 10 mg/kg i.v BIW x 3-4 weeks, vs PBS
Description: as §4

[17] = system: H22 Hepatocarcinoma; experiment: Primary tumor growth, syngeneic model; format: in vivo, mice; settings: 10 mg/kg i.v BIW x 3-4 weeks, vs PBS
Description: as §4

[18] = system: MC38 Colon carcinoma; experiment: Primary tumor growth, syngeneic model; format: in vivo, mice; settings: 10 mg/kg i.v BIW x 3-4 weeks, diamino lipid nanoparticles, vs PBS, median tumor volume
Description: as §4

## miRNA-193a: duplex of the miRNA-193a-3p of SEQ ID NO: 218 (mimic, sense) with antisense strand SEQ ID NO: 219; naked in vitro, formulated in vivo (sense UGGGACUUUGUAGGCCAGUUTT; antisense AACUGGCCUACAAAGUCCCAGU; chemistry not given here; listed as Homo sapiens)
[1]; QDx3 6.7 mg/kg iv x3 weeks, nanoparticles according to the invention
  Tumor growth (relative tumor volume): significant reduction of tumor growth
[1]; the other dosing regimen (10 mg/kg BIW; 5 mg/kg QDx4)
  Tumor growth (relative tumor volume): mild trend
[2]
  Luciferase activity of reporter construct containing mutated form of the CD73 3′UTR: did not affect the luciferase activity
[2]; vs mock and scrambled controls
  Luciferase activity of reporter construct containing NT5E 3′UTR region: downregulation of the activity
[3]
  Viability (96 h): ↓↓ (Viability < 50%)
[4]
  Viability (96 h): ↓↓ (Viability < 50%)
[5]
  Viability (96 h): ↓↓ (Viability < 50%)
[6]
  Viability (96 h): ↓↓ (Viability < 50%)
[7]
  % TGI by miRNA-193a: 46%
[8]
  % TGI by miRNA-193a: 64%
[9]
  % TGI by miRNA-193a: 42%
[10]
  % TGI by miRNA-193a: 25%
[11]
  % TGI by miRNA-193a: 54%
[12]
  % TGI by miRNA-193a: 12%
[13]
  % TGI by miRNA-193a: 7%
[14]
  % TGI by miRNA-193a: 56%
[15]
  % TGI by miRNA-193a: 34%
[16]
  % TGI by miRNA-193a: 22%
[17]
  % TGI by miRNA-193a: 45%
[18]
  % TGI by miRNA-193a: 71%
